From patent publication US6294519A, “Method for treating ischemia” (University of Kentucky Research Foundation, priority 2000, dated 2001)

Test system: focal middle cerebral arterial occlusion (MCAO) ischemia
Conditions: for neurological deficits (behavior ranking 0 to 3): 4 mg/kg i.p. at 6.5, 4.5, 2.5 and 0.5 h prior to ischemia, 24 h reperfusion, mean±SEM, n=8, 0=normal, 3=severe; for neurological deficits (behavior ranking 0 to 3) / infarct volume reduction compared to control animals: 1 h MCAO; for infarct volume reduction compared to control animals / differences in MABP, pO2, pCO2, pH or rectal temperature versus control animals: 4 mg/kg i.p. x4 prior to ischemia; for infarct volume reduction compared to control animals / statistical significance of the infarct volume difference versus control: after 24 h of reperfusion; for statistical significance of the infarct volume difference versus control: significance at p<0.05; for differences in MABP, pO2, pCO2, pH or rectal temperature versus control animals: post ischemia

CC(C)C[C@@H](NC(=O)[C@H](Cc1ccccc1)NC(=O)CNC(=O)[C@@H](C)NC(=O)[C@@H](N)Cc1ccc(O)cc1)C(=O)O [DADLE, Tyr-D-Ala-Gly-Phe-D-Leu-enkephalin]
neurological deficits (behavior ranking 0 to 3): 1.73±0.20
infarct volume reduction compared to control animals: 12%
statistical significance of the infarct volume difference versus control: not statistically significant
differences in MABP, pO2, pCO2, pH or rectal temperature versus control animals: no significant differences

CC(C)[C@H](NC(=O)[C@H](CC(=O)O)NC(=O)[C@H](Cc1ccccc1)NC(=O)[C@@H](C)NC(=O)[C@@H](N)Cc1ccc(O)cc1)C(=O)N[C@H](C(=O)NCC(N)=O)C(C)C [deltorphin, Tyr-Ala-Phe-Asp-Val-Val-Gly-NH2]
neurological deficits (behavior ranking 0 to 3): 0.44±0.11
infarct volume reduction compared to control animals: 42%
statistical significance of the infarct volume difference versus control: significantly reduced
differences in MABP, pO2, pCO2, pH or rectal temperature versus control animals: no significant differences
